# Source: PMC8187479, “Sugar phosphate activation of the stress sensor eIF2B” (Nature Communications, 2021)
# Entries after “also recorded” stand apart in the source; their conditions may differ.
# Tests used:
# [1] = target: T1, eIF2B decamer in WT HEK293T lysate (Homo sapiens, UniProt P49770+Q14232+Q9UI10); assay: Sucrose gradient centrifugation, eIF2B complex assembly, WT HEK293T lysate; format: biochemical; details: 400 mM KCl, 5–20% sucrose gradient
# T1 construct: endogenous in cells; host or cells: HEK293T (wild type) lysate
# Description: (§1) WT or eIF2Bα mutant HEK293T cells were harvested and lysed in 50 mM HEPES, 400 mM KCl, 1 mM DTT, 4 mM Mg(OAc)2, pH 7.5 + 0.5% Triton-X-100 + EDTA-free protease inhibitor cocktail (Roche) on ice for 30 min. Lysates were cleared by centrifugation at 48,000 × g, 4 °C for 30 min. 100 μL of each cleared lysate was loaded onto a 5–20% sucrose gradient prepared in a 13 × 51 mm ultracentrifuge tube using a Gradient Station (Biocomp) and centrifuged in a SW55 Ti rotor at 152,000 × g, 4 °C for 12 h. After centrifugation, 24 × 200 μL fractions were manually collected from the top to bottom of each gradient. Each fraction was subjected to methanol/chloroform precipitation and SDS-PAGE followed by Western Blot with the indicated antibodies. Blots were imaged on a ChemiDoc MP (Bio-Rad), and band intensities were quantified using the instrument’s Image Lab software. Each value was then divided by total intensity obtained across all fractions to determine percent enrichment of each subunit in each fraction.
# [2] = target: T2, recombinant eIF2B(βδγε) ± eIF2Bα2 (Homo sapiens, UniProt P49770+Q14232+Q9UI10); assay: Size-exclusion chromatography of recombinant eIF2B(βδγε) with or without eIF2Bα; format: biochemical; details: SEC, recombinant eIF2B(βδγε) + eIF2Bα2; 500 nM ISRIB, 200 μM F6P
# T2 construct: made in house; host or cells: eIF2Bα: E. coli BL21(DE3)
# Description: (§2) Purified proteins were thawed and centrifuged at 20,000 × g, 10 min, 4 °C to remove any potential precipitate. Concentrations of eIF2B(βδγε) and eIF2Bα were normalized to 2 μM and 2.4 μM, respectively. 0.2 mL of each mixture was injected onto a Superose 6 Increase 10/300 column connected to an AKTA Pure 25 FPLC system (GE Healthcare). The system was run at 0.5 mL/min for 1 h using 25 mM HEPES, 200 mM KCl, 2 mM MgCl2, 1 mM DTT, pH 7.5 as the mobile phase. For conditions with ISRIB, the protein samples and mobile phase were supplemented with 500 nM ISRIB. For conditions with F6P, the protein samples and mobile phase were supplemented with 200 μM F6P. UV280 measurements were obtained directly by the instrument.
# [3] = target: T3, recombinant eIF2B(βδγε) ± eIF2Bα2 (Homo sapiens, UniProt P49770+Q9UI10); assay: as above; format: biochemical; details: SEC, recombinant eIF2B(βδγε); 500 nM ISRIB, 200 μM F6P
# T3 construct: made in house; host or cells: eIF2Bα: E. coli BL21(DE3)
# Description: as §2
# [4] = target: T4, eIF2B decamer in eIF2Bα^E198K HEK293T lysate (Homo sapiens, UniProt P49770+Q14232+Q9UI10, E198K); assay: Sucrose gradient centrifugation, eIF2B complex assembly, eIF2Bα E198K HEK293T lysate; format: biochemical
# T4 construct: endogenous in cells; host or cells: HEK293T, CRISPR knock-in eIF2Bα E198K (homozygous), lysate
# Description: as §1
# eIF2B(βδγε) = target: T5, eIF2B(βδγε) (Homo sapiens, UniProt P49770+Q9UI10); assay: Isothermal titration calorimetry, eIF2B(βδγε) subcomplex; format: binding; details: ITC
# T5 construct: made in house
# Description: (§3) Interactions between recombinant protein and sugar phosphates were conducted with a MicroCal PEAQ-ITC (Malvern Panalytical Inc.). Experiments were performed in 25 mM HEPES, 150 mM NaCl, pH 7.5 at 20 °C. The sugar phosphate concentration in the syringe was 1 mM or 1.5 mM, and ~3.5 μL aliquots were injected into cells containing 300 μL eIF2Bα or eIF2B(βδγε) at a concentration of 20–30 μM. The final titration curves were fitted using MicroCal ITC data analysis software, assuming a single binding site per monomer.
# [5] = target: T6, phospho-eIF2α binding to eIF2B (Homo sapiens, UniProt P49770+Q14232+Q9UI10); assay: Phospho-eIF2α co-immunoprecipitation with FLAG-tagged eIF2B; details: lysate of thapsigargin-treated HEK293T eIF2Bβ-FLAG cells; ligand 2 h at 4 °C
# T6 construct: endogenous in cells; host or cells: HEK293T with FLAG knock-in at the endogenous eIF2Bβ locus, treated with thapsigargin; lysate, anti-FLAG IP
# Description: HEK293T cells endogenously expressing eIF2Bβ with a C-terminal FLAG tag were maintained in DMEM High Glucose (Corning CellGro) supplemented with 10% FBS (Gibco) and antibiotic-antimycotic (Gibco). Upon reaching 90% confluency, cells were treated with either DMSO or 100 nM thapsigargin (Sigma) for 4 h. Cells were harvested and lysed in 25 mM HEPES, 150 mM KCl, 1% NP-40, 1 mM EDTA, pH 7.4 + Complete protease inhibitor cocktail (Roche) and PhosStop (Roche) on ice for 20 min. Lysates were cleared by centrifugation at 18,000 × g, 20 min, 4 °C, and transferred to Eppendorf tubes containing anti-FLAG M2 magnetic beads (Sigma). Mixtures were incubated overnight at 4 °C. To test the effect of ligands, these were added to the mixtures and incubated for an additional 2 h at 4 °C. Beads were washed three times with lysis buffer, eluted with 1× LDS buffer (Invitrogen), and subjected to SDS-PAGE followed by Western Blot with the indicated antibodies.
# eIF2Bα^N208Y = target: T7, eIF2Bα^N208Y (Homo sapiens, UniProt Q14232, N208Y); assay: Isothermal titration calorimetry, eIF2Bα N208Y; format: binding; details: ITC
# T7 construct: made in house; host or cells: E. coli BL21(DE3)
# T7 sequence (Q14232 1-305 N208Y): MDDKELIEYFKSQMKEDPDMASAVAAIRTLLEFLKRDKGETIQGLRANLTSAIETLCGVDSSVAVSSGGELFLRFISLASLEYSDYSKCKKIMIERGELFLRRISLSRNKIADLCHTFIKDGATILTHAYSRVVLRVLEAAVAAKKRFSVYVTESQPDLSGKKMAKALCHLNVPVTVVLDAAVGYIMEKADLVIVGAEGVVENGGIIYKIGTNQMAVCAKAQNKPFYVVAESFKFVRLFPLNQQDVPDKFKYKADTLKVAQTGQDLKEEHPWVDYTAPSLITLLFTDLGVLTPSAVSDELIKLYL
# Description: as §3
# eIF2Bα^V183F = eIF2Bα^V183F (Homo sapiens, UniProt Q14232, V183F); assay: Isothermal titration calorimetry, eIF2Bα V183F; format: binding; details: ITC
# Description: Interactions between recombinant protein and sugar phosphates were conducted with a MicroCal PEAQ-ITC (Malvern Panalytical Inc.). Experiments were performed in 25 mM HEPES, 150 mM NaCl, pH 7.5 at 20 °C. […] The final titration curves were fitted using MicroCal ITC data analysis software, assuming a single binding site per monomer.
# T2 sequence (Q14232 whole entry): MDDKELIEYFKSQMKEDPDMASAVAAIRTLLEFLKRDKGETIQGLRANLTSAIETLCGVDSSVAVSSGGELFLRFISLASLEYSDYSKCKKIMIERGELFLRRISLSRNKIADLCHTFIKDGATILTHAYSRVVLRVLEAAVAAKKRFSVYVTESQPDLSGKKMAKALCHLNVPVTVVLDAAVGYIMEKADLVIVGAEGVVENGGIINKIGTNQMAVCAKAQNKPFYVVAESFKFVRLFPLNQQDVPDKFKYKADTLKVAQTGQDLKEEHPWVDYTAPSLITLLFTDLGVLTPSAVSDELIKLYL
# T2 sequence (P49770 whole entry): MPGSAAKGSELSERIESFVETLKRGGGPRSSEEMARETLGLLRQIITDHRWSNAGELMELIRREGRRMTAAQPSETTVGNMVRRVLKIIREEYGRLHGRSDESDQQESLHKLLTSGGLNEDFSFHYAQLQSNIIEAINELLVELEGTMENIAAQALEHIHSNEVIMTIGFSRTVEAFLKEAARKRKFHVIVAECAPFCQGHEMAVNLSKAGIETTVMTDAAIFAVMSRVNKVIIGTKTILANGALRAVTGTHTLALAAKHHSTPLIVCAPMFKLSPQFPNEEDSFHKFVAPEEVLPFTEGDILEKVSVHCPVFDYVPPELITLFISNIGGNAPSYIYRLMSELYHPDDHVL
# T2 sequence (Q9UI10 2-523): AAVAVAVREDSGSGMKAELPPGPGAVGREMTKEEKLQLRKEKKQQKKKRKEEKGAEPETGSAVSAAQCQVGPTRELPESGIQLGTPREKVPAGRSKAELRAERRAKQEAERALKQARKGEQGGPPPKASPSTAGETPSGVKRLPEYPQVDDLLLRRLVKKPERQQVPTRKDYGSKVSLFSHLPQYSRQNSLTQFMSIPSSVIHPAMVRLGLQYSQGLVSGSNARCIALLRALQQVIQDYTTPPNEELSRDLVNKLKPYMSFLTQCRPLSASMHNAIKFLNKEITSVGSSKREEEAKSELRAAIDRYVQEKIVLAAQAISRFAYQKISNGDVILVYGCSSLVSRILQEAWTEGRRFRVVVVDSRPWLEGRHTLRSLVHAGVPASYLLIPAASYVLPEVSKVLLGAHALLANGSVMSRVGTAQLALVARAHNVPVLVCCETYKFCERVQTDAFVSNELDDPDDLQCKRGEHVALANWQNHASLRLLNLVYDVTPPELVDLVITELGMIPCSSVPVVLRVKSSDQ
# T2 sequence (Q9NR50 whole entry partner): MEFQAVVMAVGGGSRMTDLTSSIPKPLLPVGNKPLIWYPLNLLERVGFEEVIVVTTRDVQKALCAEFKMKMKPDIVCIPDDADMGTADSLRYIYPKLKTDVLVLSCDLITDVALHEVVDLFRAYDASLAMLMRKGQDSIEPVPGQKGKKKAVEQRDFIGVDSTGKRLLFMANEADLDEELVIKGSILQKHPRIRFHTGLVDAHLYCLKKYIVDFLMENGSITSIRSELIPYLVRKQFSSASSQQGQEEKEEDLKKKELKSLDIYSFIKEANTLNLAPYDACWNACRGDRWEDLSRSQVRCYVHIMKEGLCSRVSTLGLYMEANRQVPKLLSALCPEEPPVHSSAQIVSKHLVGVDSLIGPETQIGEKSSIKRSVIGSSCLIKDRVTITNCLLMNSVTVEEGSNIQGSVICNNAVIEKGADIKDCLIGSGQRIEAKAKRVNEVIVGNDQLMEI
# T2 sequence (Q13144 whole entry partner): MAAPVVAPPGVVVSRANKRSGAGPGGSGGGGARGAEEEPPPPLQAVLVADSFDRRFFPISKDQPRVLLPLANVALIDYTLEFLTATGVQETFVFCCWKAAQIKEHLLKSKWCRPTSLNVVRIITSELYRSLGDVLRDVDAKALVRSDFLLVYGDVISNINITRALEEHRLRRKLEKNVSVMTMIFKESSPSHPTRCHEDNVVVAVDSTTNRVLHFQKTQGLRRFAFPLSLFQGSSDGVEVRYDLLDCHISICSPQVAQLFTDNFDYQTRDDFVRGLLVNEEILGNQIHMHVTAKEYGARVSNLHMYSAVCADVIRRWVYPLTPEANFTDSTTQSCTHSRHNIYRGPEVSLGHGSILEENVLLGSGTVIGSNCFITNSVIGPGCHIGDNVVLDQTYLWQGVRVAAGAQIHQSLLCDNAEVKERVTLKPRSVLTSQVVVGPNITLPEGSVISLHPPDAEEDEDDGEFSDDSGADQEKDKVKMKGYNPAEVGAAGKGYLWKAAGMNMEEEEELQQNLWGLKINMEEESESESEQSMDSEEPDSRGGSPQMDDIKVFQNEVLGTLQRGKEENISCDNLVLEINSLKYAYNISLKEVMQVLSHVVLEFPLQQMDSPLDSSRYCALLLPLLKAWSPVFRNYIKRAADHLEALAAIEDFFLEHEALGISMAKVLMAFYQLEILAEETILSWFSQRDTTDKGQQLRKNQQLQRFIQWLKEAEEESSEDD
# T1 sequence (Q14232 whole entry): as the sequence (Q14232 whole entry) above
# T1 sequence (P49770 whole entry): as the sequence (P49770 whole entry) above
# T1 sequence (Q9UI10 whole entry): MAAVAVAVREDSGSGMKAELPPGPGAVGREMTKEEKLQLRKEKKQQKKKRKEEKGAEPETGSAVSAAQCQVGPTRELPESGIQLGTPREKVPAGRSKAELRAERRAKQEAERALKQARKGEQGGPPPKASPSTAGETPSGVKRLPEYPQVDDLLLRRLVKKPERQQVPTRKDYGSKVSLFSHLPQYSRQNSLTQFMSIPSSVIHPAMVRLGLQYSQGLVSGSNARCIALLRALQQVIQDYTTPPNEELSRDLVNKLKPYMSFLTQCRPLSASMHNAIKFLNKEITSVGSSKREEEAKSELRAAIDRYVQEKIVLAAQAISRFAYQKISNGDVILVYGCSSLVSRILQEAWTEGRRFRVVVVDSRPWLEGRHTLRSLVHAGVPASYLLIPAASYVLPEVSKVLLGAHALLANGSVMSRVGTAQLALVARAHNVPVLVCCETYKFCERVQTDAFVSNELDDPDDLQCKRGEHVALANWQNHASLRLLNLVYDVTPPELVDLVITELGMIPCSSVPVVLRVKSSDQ
# T1 sequence (Q9NR50 whole entry partner): as the sequence (Q9NR50 whole entry partner) above
# T1 sequence (Q13144 whole entry partner): as the sequence (Q13144 whole entry partner) above
# T6 sequence (P49770 whole entry): as the sequence (P49770 whole entry) above
# T6 sequence (Q9UI10 whole entry): as the sequence (Q9UI10 whole entry) above
# T6 sequence (Q14232 whole entry): as the sequence (Q14232 whole entry) above
# T6 sequence (Q9NR50 whole entry partner): as the sequence (Q9NR50 whole entry partner) above
# T6 sequence (Q13144 whole entry partner): as the sequence (Q13144 whole entry partner) above
# T5 sequence (P49770 whole entry): as the sequence (P49770 whole entry) above
# T5 sequence (Q9UI10 whole entry): as the sequence (Q9UI10 whole entry) above
# T5 sequence (Q9NR50 whole entry partner): as the sequence (Q9NR50 whole entry partner) above
# T5 sequence (Q13144 whole entry partner): as the sequence (Q13144 whole entry partner) above
# T3 sequence (P49770 whole entry): as the sequence (P49770 whole entry) above
# T3 sequence (Q9UI10 2-523): as the sequence (Q9UI10 2-523) above
# T3 sequence (Q9NR50 whole entry partner): as the sequence (Q9NR50 whole entry partner) above
# T3 sequence (Q13144 whole entry partner): as the sequence (Q13144 whole entry partner) above
# Sequence of eIF2Bα^V183F (Q14232 whole entry V183F): as the sequence (Q14232 whole entry) above, with V183F counted along it
# T4 sequence (Q14232 whole entry E198K): as the sequence (Q14232 whole entry) above, with E198K counted along it
# T4 sequence (P49770 whole entry): as the sequence (P49770 whole entry) above
# T4 sequence (Q9UI10 whole entry): as the sequence (Q9UI10 whole entry) above
# T4 sequence (Q9NR50 whole entry partner): as the sequence (Q9NR50 whole entry partner) above
# T4 sequence (Q13144 whole entry partner): as the sequence (Q13144 whole entry partner) above
smiles,measurement,setting,value
"O=C(CO)[C@@H](O)[C@H](O)[C@H](O)COP(=O)(O)O [F6P, fructose-6-phosphate]",eIF2B decamer formation (migration of eIF2Bα and eIF2Bδ),[1],induced stabilization of the eIF2B decamer comparable to ISRIB
same,complex formation in the presence of eIF2Bα,[2],enhances eIF2B complex stability
same,complex formation in the absence of eIF2Bα,[3],ineffective at promoting complex formation
same,eIF2B decamer formation,[4],unresponsive
same,interaction with eIF2B(βδγε) subcomplex,eIF2B(βδγε),did not interact appreciably
same,co-immunoprecipitation of phospho-eIF2α with FLAG-tagged eIF2B,[5],did not decrease the interaction
same,interaction with eIF2Bα N208Y,eIF2Bα^N208Y,does not interact; also recorded: abrogates binding
same,Kd,eIF2Bα^V183F,6.3 ± 0.7 µM
